# Laboratory results: PMC9103414 (Journal of pharmacological and toxicological methods, 2022)
# Structures can show the parent of a compound that is named as a salt. Where two headings read alike, the source gives them in different places. Marks after values point to notes of the source that are not given here.
# What was measured:
# hiPSC-neurons [1] = assay: HCA of synapses; format: cell-based, human
# hiPSC-neurons [2] = assay: Calcium KIC assay; format: cell-based, human; settings: each ARV at 10 μM, 7 days; for Calcium transient activity compared to DMSO (traces): Fig. 5, Fig. S1; for Percent active hiPSC-neurons, reduction vs DMSO: Fig. 6D; for Number of active neurons with detectable increases in calcium fluorescence: six wells per condition, Fig. 5 (DMSO: 1034 cells)
# [3] = cited from earlier work; for Plasma concentrations reach steady state by day: daily dosage, ref Min, et al.; for Cmax: read-out: Plasma Cmax, ref Food and Drug Administration New Drug Applications for each antiretroviral
# hiPSC-neurons [4] = settings: for Neuronal Viability (percentage of live neuronal nuclei), reduction vs DMSO / Neuronal Viability, change vs DMSO: Fig. 1B; for Total Neurite Length (per cm^2 image area), reduction vs DMSO: Fig. 1C; for Neuronal Viability, reduction vs DMSO: Fig. 2D
# [5] = tested on: primary embryonic rat neurons; settings: ref Stern, et al., 2018, cited from earlier work; for Number of MAP2+ neurons: 10 μM
# hNPCs [6] = assay: hNPC viability; format: cell-based, human; settings: Fig. 7A
# hNPCs [7] = assay: Microscopic Imaging of Epigenetic Landscapes; format: cell-based, human; settings: for Samples classified correctly by discriminant analysis: H3K27me3/H3K27ac and H3K9me3/H3K4me1 confusion matrices, Fig. 7D, E
# murine NPCs = settings: ref Demir & Laywell, 2015; P. Xu, et al., 2017; cited from earlier work
# hiPSC-microglia = settings: cited from earlier work
# [8] = lower concentrations (0.1, 1 μM), 7 days
# [9] = 25 μM (inhibiting myosin activity)
Compound,"Synapses/Neurite Length, reduction vs DMSO (hiPSC-neurons [1]; 0.1 μM, 7 days, Fig. 3C) [%]","Synapse Density, reduction vs DMSO (hiPSC-neurons [1]; 1 μM, 7 days, Fig. 3B) [%]","Synapses/Neurite Length, reduction vs DMSO (hiPSC-neurons [1]; 1 μM, 7 days, Fig. 3C)","Synapses/Neurite Length, reduction vs DMSO (hiPSC-neurons [1]; 10 μM, 7 days, Fig. 3C)","Synapse Density, percent difference between ARV treatment and DMSO control (hiPSC-neurons [1]; each ARV at 10 μM, 7 days)","Mean Peak Amplitude, percent difference between ARV treatment and DMSO control (hiPSC-neurons [2])","Percent Active, percent difference between ARV treatment and DMSO control (hiPSC-neurons [2])",Number of active neurons with detectable increases in calcium fluorescence (hiPSC-neurons [2]) [cells],Cmax [3] [µM],"Neuronal Viability (percentage of live neuronal nuclei), reduction vs DMSO (hiPSC-neurons [4]; 10 μM, 7 days) [%]","Total Neurite Length (per cm^2 image area), reduction vs DMSO (hiPSC-neurons [4]; 10 μM, 7 days) [%]","Total Neurite Length, percent difference between ARV treatment and DMSO control (hiPSC-neurons [4]; each ARV at 10 μM, 7 days)","Neuronal Viability, reduction vs DMSO (hiPSC-neurons [4]; each ARV at 10 μM, 7 days) [%]","Synapse Density, reduction vs DMSO (hiPSC-neurons [1]; 10 μM, 7 days, Fig. 3B) [%]",further results
"C[C@@H]1CCO[C@H]2Cn3cc(C(=O)NCc4ccc(F)cc4F)c(=O)c(O)c3C(=O)N12 [DTG, dolutegravir]",20,30,30%,no effect,−10(NS) percent,−35(NS) percent,−30 ^* percent,716,8,30,20,−14(NS) percent,20,–,"Event Frequency, percent difference between ARV treatment and DMSO control (hiPSC-neurons [2]): −10(NS) percent; Calcium transient activity compared to DMSO (traces) (hiPSC-neurons [2]): less calcium transient activity compared to DMSO; Percent active hiPSC-neurons, reduction vs DMSO (hiPSC-neurons [2]): 30%; Plasma concentrations reach steady state by day ([3]; healthy volunteers, 2010): ≤ 5 days; Plasma concentrations reach steady state by day ([3]; people with HIV, 2011): ≤ 7 days; Neurite Length per Neuron, increase vs DMSO (hiPSC-neurons [4]; 10 μM, 7 days, Fig. 1D): 20%"
"COc1cc2c(cc1Cc1cccc(Cl)c1F)c(=O)c(C(=O)O)cn2[C@H](CO)C(C)C [EVG, elvitegravir]",25,–,no effect,–,−90 ^*** percent,−55 ^** percent,−90 ^*** percent,31,–,65,80,−85 ^*** percent,80,75,"Synapse Density (synapses per cm^2 imaging area), reduction vs DMSO (hiPSC-neurons [1]; 0.1 μM, 7 days, Fig. 3B): 20%; Synapses/Neurite Length, increase vs DMSO (hiPSC-neurons [1]; 10 μM, 7 days, Fig. 3C): 20%; Synapse Density, reduction vs DMSO (hiPSC-neurons [1]; each ARV at 10 μM, 7 days, Fig. 4C): 90%; Event Frequency, percent difference between ARV treatment and DMSO control (hiPSC-neurons [2]): −40 ^** percent; Calcium transient activity compared to DMSO (traces) (hiPSC-neurons [2]): virtually inactive; Percent active hiPSC-neurons, reduction vs DMSO (hiPSC-neurons [2]): 90%; Calcium transient event frequency, reduction vs DMSO (hiPSC-neurons [2]; Fig. 6E): 40%; Calcium transient mean peak amplitude, reduction vs DMSO (hiPSC-neurons [2]; Fig. 6F): 55%; Neurite Length per Neuron, lower than DMSO (hiPSC-neurons [4]; 10 μM, 7 days, Fig. 1D): 50%; Total Neurite Length, reduction vs DMSO (hiPSC-neurons [4]; each ARV at 10 μM, 7 days, Fig. 2E): 85%; Neuronal Viability, change vs DMSO (hiPSC-neurons [4]; [8]): did not observe changes; Number of MAP2+ neurons ([5]; four days): significantly reduced the number of MAP2+ neurons; Number of MAP2+ neurons ([5]; two days): not two days; Neurotoxicity ([5]; 0.1 and 1 μM): not neurotoxic"
"Nc1nc(=O)n([C@@H]2CS[C@H](CO)O2)cc1F [FTC, emtricitabine]",20,20,20%,30%,−10(NS) percent,−10(NS) percent,–,1003,7,–,–,−6(NS) percent,–,30,"Neuronal Viability, change vs DMSO (hiPSC-neurons [4]; any tested concentration (0.1, 1, 10 μM), 7 days): did not observe changes"
CCCc1cc(C)[nH]c(=O)c1CNC(=O)c1cc(-c2ccnc(N3CCN(C)CC3)c2)cc2c1cnn2C(C)C [GSK343],–,–,–,–,–,–,–,–,–,–,–,–,–,–,"hNPC viability, reduction vs DMSO (hNPCs [6]; 10 μM, three days): 50%; Samples classified correctly by discriminant analysis (hNPCs [7]; 10 μM): 100%"
O=C(CCCCCCC(=O)Nc1ccccc1)NO [SAHA],–,–,–,–,–,–,–,–,–,–,–,–,–,–,"hNPC viability, reduction vs DMSO (hNPCs [6]; 3 μM): 45%; Samples classified correctly by discriminant analysis (hNPCs [7]; 3 μM): 100%"
"CC(C)OC(=O)OCOP(=O)(CO[C@H](C)Cn1cnc2c(N)ncnc21)OCOC(=O)OC(C)C [TDF, tenofovir disoproxil fumarate]",20,30,25%,20%,–,+20(NS) percent,−10(NS) percent,729,0.6,35,20,–,30,40,"hNPC viability, reduction vs DMSO (hNPCs [6]; 10 μM, three days): 30%; Effect on epigenetic landscape (H3K27me3/H3K27ac and H3K9me3/H3K4me1 MIEL analysis) (hNPCs [7]; 10 μM, three days, Fig. 7B–E): altered the epigenetic landscape; Neuronal Viability, change vs DMSO (hiPSC-neurons [4]; [8]): did not observe changes; Viability of murine NPCs (murine NPCs): reduce the viability"
O=C1Nc2ccc(Cl)cc2[C@@](C#CC2CC2)(C(F)(F)F)O1 [efavirenz],–,–,–,–,–,–,–,–,–,–,–,–,–,–,Inflammation in hiPSC-microglia (hiPSC-microglia): increased inflammation; Phagocytosis in hiPSC-microglia (hiPSC-microglia): reduced phagocytosis
C[C@@H]1CCN(C(=O)CC#N)C[C@@H]1N(C)c1ncnc2[nH]ccc12 [tofacitinib],–,–,–,–,–,–,–,–,–,–,–,–,–,–,"hNPC viability, effect (hNPCs [6]; 1 μM): not affected"
Cc1cn([C@H]2C[C@H](N=[N+]=[N-])[C@@H](CO)O2)c(=O)[nH]c1=O [zidovidine],–,–,–,–,–,–,–,–,–,–,–,–,–,–,Viability of murine NPCs (murine NPCs): reduce the viability
para-nitroblebbistatin,–,–,–,–,–,–,–,–,–,–,–,–,–,–,"Synapse Density, reduction vs DMSO (hiPSC-neurons [1]; 25 μM, 7 days, Fig. 3B): 30%; Synapses/Neurite Length, reduction vs DMSO (hiPSC-neurons [1]; 25 μM, 7 days, Fig. 3C): 20%; Synapse Density, increase vs DMSO (hiPSC-neurons [1]; 25 μM, one day, Fig. 4A): 20%; Neurite length, effect (hiPSC-neurons [4]; [9]): did not affect; Neuron viability, effect (hiPSC-neurons [4]; [9]): did not affect; Total Neurite Length, increase vs DMSO (hiPSC-neurons [4]; 25 μM, one day, Fig. 2B): 15%"
